Inconclusive results are not listed.
Test system: IOSE-T80 viability, CellTiterGlo ATP luminescence, 96 h
Test: IOSE-T80 viability loss, PAX8-independent line – cell-based, cherry-pick, selectivity assay for PAX8 inhibitor project, dose response (AID 687032)

SMILES	AC50
C[C@@H]1CCCCO[C@@H](CN(C)Cc2ccc(C(F)(F)F)cc2)[C@@H](C)CN([C@@H](C)CO)C(=O)c2cc(NS(=O)(=O)c3ccccc3)ccc2O1	< 0.26 µM
CC(C)CCCCCCCCCCCCC(=O)NCC(=O)NC1C(C)OC(Nc2ncnc3nc[nH]c23)C(O)C1O (configuration not stated)	< 0.26 µM
COc1ccc(S(=O)(=O)Nc2ccc3c(c2)CC(=O)N([C@@H](C)CO)C[C@@H](C)[C@@H](CN(C)Cc2ccc(-c4ccccc4)cc2)O3)cc1	< 0.26 µM
COc1ccc(CCNc2nnc(Sc3nnnn3-c3ccccc3)s2)cc1OC	8.84 µM
N#Cc1ccc(-c2ccc(C3[C@@H]4CN(C(=O)C5CC5)C[C@H]3N4)cc2)cc1 (some centres not stated)	< 0.26 µM
COc1ccc2c(COC(=O)CNC(=O)C34CC5CC(CC(C5)C3)C4)cc(=O)oc2c1	< 0.26 µM
C[C@@H]1CCCCO[C@H](CN(C)Cc2ccc(C(F)(F)F)cc2)[C@H](C)CN([C@H](C)CO)C(=O)c2cc(NS(=O)(=O)c3cccs3)ccc2O1	< 0.26 µM
COc1ccc(NC(=O)c2c(Nc3ccccc3)sc(C(=O)c3ccc(F)cc3)c2N)cc1	< 0.26 µM
CCOC(=O)Nc1ccc2c(c1)N(C(=O)CCN(CC)CC)c1ccccc1S2=O (configuration not stated)	< 0.26 µM
O=C(CCC(=O)c1ccccc1)NCCc1c[nH]c2ccccc12	< 0.26 µM
O=c1cc(-c2ccccc2)oc2ccc3ccccc3c12	< 0.26 µM
CCOC(=O)c1c(-c2ccc(F)cc2)csc1NC(=O)CN1C(=O)NC2(CCCCC2C)C1=O (configuration not stated)	9.07 µM
COc1cc(-c2cnc3c(NC=O)cc(-c4ccccc4)cn23)cc(OC)c1OC	< 0.26 µM
C[C@H](CO)N1C[C@H](C)[C@@H](CN(C)CC2CCCCC2)Oc2c(NC(=O)CCCCCC(=O)Nc3ccccc3N)cccc2C1=O	< 0.26 µM
Cc1ccc(NC(=O)CN(C)C(=O)Cn2ncc(Cl)c(Cl)c2=O)cc1	< 0.26 µM
C[C@@H]1CN([C@H](C)CO)C(=O)c2cc(NC(=O)Nc3ccc(F)cc3)ccc2O[C@@H](C)CCCCO[C@@H]1CN(C)Cc1ccc2c(c1)OCO2	< 0.26 µM
Cn1ncc2c(O/N=C(\N)c3ccc(C(F)(F)F)cc3)ncnc21	< 0.26 µM
O=C(O)c1cccc(COc2ccc3c(c2)CCC3)c1	< 0.26 µM
C(=Cc1cnc2ccccc2n1)c1ccc2c(c1)OCO2	7.89 µM
O=S(=O)(c1ccccc1F)N1CC[C@@H]2[C@@H](CO)Nc3ccc(C4=CCCCC4)cc3[C@@H]21	< 0.26 µM
COc1cc(OC)c2c(-c3cccc(-c4ccc(OC)c(F)c4)c3)cc(=O)oc2c1	10.7 µM

SMILES	AC50
C[C@@H]1CN([C@H](C)CO)C(=O)c2cc(NS(=O)(=O)c3ccc(Cl)cc3)ccc2O[C@@H](C)CCCCO[C@@H]1CN(C)Cc1ccccc1	< 0.26 µM
C[C@@H]1CCCCO[C@@H](CN(C)Cc2ccc(Cl)c(Cl)c2)[C@H](C)CN([C@H](C)CO)C(=O)c2cc(NC(=O)Nc3ccc(C(F)(F)F)cc3)ccc2O1	35.6 µM
Cc1ccccc1CNC(=O)C1CCCN(c2nnc(C)c3c(C)n(-c4ccccc4)nc23)C1 (configuration not stated)	< 0.26 µM
C[C@H](CO)N1C[C@H](C)[C@H](CN(C)Cc2ccc(C(F)(F)F)cc2)OCCCC[C@H](C)Oc2ccc(NS(=O)(=O)c3ccccc3)cc2C1=O	< 0.26 µM
Cc1ccc2c(c1)c1c3n2CCN(CC(N)=O)C3CCC1 (configuration not stated)	10.2 µM
CCCNC(=O)Nc1ccc2c(c1)OC[C@H](C)N(Cc1ccc(-c3ccccn3)cc1)C[C@@H](C)[C@@H](OC)CN(C)C2=O	< 0.26 µM
O=C(Nc1cccc(NC(=O)c2cccs2)c1)c1ccc([N+](=O)[O-])o1	8.62 µM
O=C(NC1CCCCC1)C(c1cccnc1)N(C(=O)CCl)c1ccc(F)cc1 (configuration not stated)	10.2 µM
C[C@H]1CCCCO[C@H](CN(C)Cc2ccc(C(F)(F)F)cc2)[C@@H](C)CN([C@@H](C)CO)C(=O)c2cc(NC(=O)c3ccccc3)ccc2O1	32.1 µM
CCCn1c(C)cc(C(=O)CN2C(=O)c3ccccc3S2(=O)=O)c1C	< 0.26 µM
O=C(Cc1nnc(NC(=O)c2ccccc2)s1)N/N=C/c1ccco1	< 0.26 µM
Cc1ccc(S(=O)(=O)N(C)C[C@@H]2Oc3cc(C#Cc4ccncc4)ccc3S(=O)(=O)N([C@H](C)CO)C[C@@H]2C)cc1	24.2 µM
COc1ccccc1C#Cc1ccc2c(c1)O[C@H](CN(C)Cc1cccnc1)[C@H](C)CN([C@@H](C)CO)S2(=O)=O	3.05 µM
C[C@H]1CCCCO[C@H](CN(C)Cc2ccc(C(F)(F)F)cc2)[C@@H](C)CN([C@@H](C)CO)C(=O)c2cc(NS(=O)(=O)c3ccc(Cl)cc3)ccc2O1	< 0.26 µM
COc1cccc(S(=O)(=O)N2CC[C@H]3[C@@H](CO)N(C)c4ccc(C#Cc5ccc(F)cc5)cc4[C@H]32)c1	34.5 µM
CC(=O)[C@@]1(O)Cc2c(O)c3c(c(O)c2[C@H](O[C@H]2C[C@H](N)[C@H](O)[C@H](C)O2)C1)C(=O)c1ccccc1C3=O	8.8 µM
O=S(=O)(NCC1CCCO1)c1cnc(Cl)c(Br)c1 (configuration not stated)	< 0.26 µM
O=[N+]([O-])c1cccnc1S(=O)(=O)c1ccccc1	< 0.26 µM
Cc1ccsc1/C=N/Nc1cccc(C(=O)O)c1	17.3 µM
O=C(c1cc([N+](=O)[O-])ccc1N1CCOCC1)N1CCN(c2ccccc2)CC1	< 0.26 µM
Cn1nnnc1Sc1ncnc2scc(-c3cccc(S(C)(=O)=O)c3)c12	8.51 µM

— PubChem BioAssay AID687032 (Broad Institute, 2013)
